{
  "source": "patent US20150045434A1",
  "about": "“METHIONINE COMPOUND INTENDED FOR ANIMAL FEED” (ROQUETTE FRERES, priority 2011, published 2015)",
  "origin": "cited, not measured here",
  "key": {"[1]": {"settings": "at 35° C."}},
  "data": [
    {"compound": "CSCC[C@H](N)C(=O)O", "note": "[methionine]", "values": [
      {"measurement": "solubility of methionine", "setting": "[1]", "result": "about 70 g/l"},
      {"measurement": "pKa1 (pKa of the acid function of methionine)", "setting": "acid function", "result": 2.2},
      {"measurement": "pKa2 (pKa of the amine function of methionine)", "setting": "amine function", "result": 9.3}
    ]}
  ]
}
